Measured values published in patent US6977269B1, “Method of improving animal tissue quality” (Pioneer Hi-Bred International, Inc, priority 2001, dated 2005).
Read-outs that look alike come from different tables or passages of the source. Marks after values point to notes of the source that are not given here.

Experiments:
pigs [1] = test: Pork loin pH in swine feeding trial; assay type: in vivo
Protocol: Applicants assessed the effects of gamma-tocopherol supplementation on meat quality in an experiment in which pork from pigs fed one of three dietary concentrations of gamma-tocopherol was compared to pork from pigs fed either no supplemental tocopherol in excess of amounts needed to support growth and development, or one of three dietary concentrations of alpha-tocopherol.
(§1) Young pigs were fed a diet containing 15 IU/kg feed (=15 mg/kg feed=[…]) vitamin E (in the form of alpha-tocopherol acetate) up to 120 pounds. Upon reaching 120 pounds, the pigs were randomly assigned to treatments using weight as a blocking factor. Sixteen pigs were allocated to the control diet, while thirteen pigs were allocated to each test diet. Treatments consisted of typical corn-soybean meal based diets with three levels of dietary tocopherol: (1) Control diet (15 mg/kg feed alpha-tocopherol acetate); (2) diets supplemented with 150, 300 or 450 mg/kg feed alpha-tocopherol acetate; and (3) diets supplemented with 150, 300 or 450 mg/kg feed gamma-tocopherol. Diets were formulated to provide adequate levels of all nutrients and fed in four phases.
The levels of alpha-tocopherol supplementation chosen were those previously shown to improve meat quality and the pigs consuming these diets were used as positive controls. Pigs consuming diets without additional supplementation of alpha or gamma-tocopherol were used as negative controls. Pork quality was assessed using standard methods, including pH, Japanese color score, oxidative stability, retail display appearance and Minolta color values.
The trial was terminated when the average weight of a treatment replicate reached 260 pounds (minimum of 60 days). Standard carcass data (hot carcass weight, backfat, loin depth and lean) were collected. In addition to the standard carcass data collected at the slaughter plant, color, pH, marbling, firmness and Hunter Lab data were collected. Loin and ham samples were also collected for determination of gamma-tocopherol concentration.
(§2) Determination of pH was made on days 0 and 5 as an indication of pork spoilage. Oxidative rancidity was measured using 2-Thiobarbituric acid to determine TBA number. Final values were expressed as mg malonaldehyde per 1000 grams of meat. Purge was determined on the vacuum-packaged pork loins.
(§3) Data were analyzed using the GLM procedure of SAS. Due to a limited number of observations from the 150 IU alpha-tocopherol treatment, no estimates of carcass or loin quality measures are presented for that treatment. Data collected over a period of days were also analyzed as a splitplot. Contrasts were made between the Control and added tocopherol diets, Control and alpha-tocopherol, Control and gamma-tocopherol, and alpha- versus gamma-tocopherol.

pigs [2] = test: Oxidative rancidity of pork chops (2-thiobarbituric acid, TBA number); assay type: in vivo
Protocol: as §1
(§4) Pork chops (2.5 cm) were cut from vacuum-packaged pork loins that had been stored for 21 days at 1 degree C. Freshly cut chops were placed on styrofoam trays with DriLoc (V 50 pads) and overwrapped with PVC (23,250 cc/m 2 /24 hours oxygen permeability). Pork chops were placed in simulated retail display at 2±3 degrees C. for six days. Product temperature was monitored during the display period. Chops were analyzed for lightness (L*), redness (a*), and yellowness (b*) using Illuminant C or D65 on a Minolta Chroma Meter. Three readings per chop were taken on display days 0, 1, 2, 3, 4 and 5.
as §2, §3

pigs [3] = test: Visual panel appearance score of pork loin chops in simulated retail display; assay type: in vivo
Protocol: as §1, §4
Loin chop color was evaluated using a trained visual panel of 10 people. Color score was determined using a five-point scale with a score of one (1) representing a very bright pinkish gray and a score of five (5) representing a dull dark red to brown color representative of color deterioration.
as §3

pigs [4] = assay type: in vivo, swine
Description: The data was derived from the same swine tests as in Example 1. Data from 43 samples was ranked in descending order for four parameters: alpha-tocopherol concentration, gamma-tocopherol concentration, alpha plus gamma-tocopherol concentration, and ratio of alpha-tocopherol to gamma-tocopherol. The data was divided into four quartiles, averaged, and compared to the corresponding quartile loin pH average.

lambs [5] = test: Growth performance in lambs; assay type: in vivo; conditions: for Interim BW: after 20 days on test; for Final BW: after 43 days on test
Description: The effects of diet supplementation with alpha-tocopherol and gamma-tocopherol on tissue oxidation and storage life of fresh meat from lambs fed a diet supplemented with tocopherol was studied. A total of 42 weaned Western white-faced lambs (4 ewes, 38 males) were used in a feeding trial. The lambs were housed two per pen in a slatted floor barn and initially fed chopped oat hay, then gradually acclimated to a beet pulp-based basal diet. The basal ration consisted of 82.2% beet pulp pellets, 9.5% chopped oat hay, 6.0% liquid molasses, 1.5% soybean meal, 0.8% mineralized salt, and monensin (30 g/ton). All lambs were given ad libitum access to the basal diet.
The basal diet was fed for 60 days and on days 61 and 62, lambs were weighed to calculate initial body weight. Lambs were blocked by weight, without regard to gender, and randomly assigned within weight blocks to pens, and pens were randomly assigned to dietary treatments (14 lambs/treatment).
(§5) Interim and final weights were taken on two consecutive days after 20 and 43 days on test, respectively, to calculate average daily weight gain (ADG) and feed conversion. On the 45th day on test, the lambs were transported to a commercial packing plant and slaughtered the following morning. Standard carcass data were collected.
The fourth column is standard error of measurement (SEM). The last two columns are P values for the statistical comparison of the alpha group versus the gamma group, and the control group versus the alpha and gamma groups.

lambs [6] = test: Lamb carcass characteristics; assay type: in vivo; conditions: for Bone maturity: A0 = 1.0 ... A90 = 1.9; for Leg score: high Prime = 15 ... low Choice = 10; for Adjusted fat / Body wall thickness / Dressing percentage / Quality grade / Rib eye area / Yield grade: in vivo; for Hot carcass weight: lambs, 500 IU/kg/day for 45 days; for Flank streaking: trace = 1, slight = 2, small = 3
Description: as §5
Characteristics included hot carcass weight, adjusted fat, rib eye area, and body wall thickness. As indicated in the last two columns under Contrasts (P values), there were no statistically significant differences (P<0.05) in carcass measurements between the alpha and gamma groups or between the control group and the alpha and gamma groups.

[7] = in vivo; cited from earlier work
[8] = pork, all supplemented levels pooled
[9] = five-point scale, all supplemented levels pooled

Structure (SMILES)	PH (pigs [1]; all supplemented levels pooled)	PH (pigs [1]; dietary level 300 IU)	PH (pigs [1]; dietary level 450 IU)	Oxidative stability (5 day storage TBA) (pigs [2]; dietary level 300 IU)	Oxidative stability (5 day storage TBA) (pigs [2]; dietary level 450 IU)	Oxidative stability (5 day storage TBA) (pigs [2]; [8])	Appearance score (after 5 day retail display) (pigs [3]; dietary level 300 IU)	Appearance score (after 5 day retail display) (pigs [3]; dietary level 450 IU)	Appearance score (after 5 day retail display) (pigs [3]; [9])	Corresponding quartile loin pH average (pigs [4]; 1st Q of the ranked parameter)	Corresponding quartile loin pH average (pigs [4]; 2nd Q of the ranked parameter)	Corresponding quartile loin pH average (pigs [4]; 3rd Q of the ranked parameter)	Corresponding quartile loin pH average (pigs [4]; 4th Q of the ranked parameter)	Gain: feed (lambs [5]; 1st 20 Days)	Intake (lambs [5]; 1st 20 Days)	ADG (lambs [5]; 1st 20 Days, 500 IU/kg/day)	ADG (lambs [5]; 2nd 23 Days)	Gain: feed (lambs [5]; 2nd 23 Days)	Intake (lambs [5]; 2nd 23 Days)	ADG (lambs [5]; Overall)	also measured
Cc1c(C)c2c(c(C)c1O)CC[C@@](C)(CCC[C@H](C)CCC[C@H](C)CCCC(C)C)O2 [Alpha-tocopherol, alpha-tocopherol, reference compound]	5.97	6.08^ab	5.85^b	.134 mg malonaldehyde per 1000 grams of meat	.072 mg malonaldehyde per 1000 grams of meat	.103 mg malonaldehyde per 1000 grams of meat	3.49	4.09	3.79	5.80	5.78	6.01	5.93	124.2 g/kg	1.43 kg/day	164.1 g/day	190.9^b g/d	127.1^a g/kg	1.54 kg/day	182.3 g/day	ADG (lambs [5]; 2nd 23 Days, listed as alpha-tocopherol): 190.9 g/day; Gain: feed (lambs [5]; Overall): 126.0^a g/kg; Intake (lambs [5]; Overall): 1.49 kg/day; Interim BW (lambs [5]): 52.1 kg; Final BW (lambs [5]): 56.6 kg; Bone maturity (lambs [6]): 1.47^b; Leg score (lambs [6]): 10.8; Adjusted fat (lambs [6]): 0.55 cm; Body wall thickness (lambs [6]): 2.13 cm; Dressing percentage (lambs [6]): 48.2; Quality grade (lambs [6]): 5.27; Rib eye area (lambs [6]): 5.63 sq. cm; Yield grade (lambs [6]): 2.42; Hot carcass weight (lambs [6]): 27.4 kg; Flank streaking (lambs [6]): 3.02^a; absorbed in the bloodstream [7]: about 100%
Cc1c(O)cc2c(c1C)O[C@](C)(CCC[C@H](C)CCC[C@H](C)CCCC(C)C)CC2 [Gamma-tocopherol, gamma-tocopherol]	6.11	6.28^a	5.94^b	.080 mg malonaldehyde per 1000 grams of meat	.125 mg malonaldehyde per 1000 grams of meat	.102 mg malonaldehyde per 1000 grams of meat	4.06	3.72	3.89	6.03	5.95	5.77	5.77	132.6 g/kg	1.35 kg/day	173.5 g/day	264.0^a g/d	187.2^b g/kg	1.45 kg/day	221.9 g/day	PH (pigs [1]; dietary level 150 IU): 5.99^ab; Oxidative stability (5 day storage TBA) (pigs [2]; dietary level 150 IU): .177 mg malonaldehyde per 1000 grams of meat; Oxidative stability (5 day storage TBA) (pigs [2]; dietary level 300 IU, listed as gamma-tocopherol): 0.080 mg malonaldehyde per 1000 gram; Appearance score (after 5 day retail display) (pigs [3]; dietary level 150 IU): 4.05; ADG (lambs [5]; 2nd 23 Days, listed as gamma-tocopherol): 264.0 g/day; Gain: feed (lambs [5]; Overall): 162.8^b g/kg; Intake (lambs [5]; Overall): 1.40 kg/day; Interim BW (lambs [5]): 53.0 kg; Final BW (lambs [5]): 59.1 kg; Bone maturity (lambs [6]): 1.62^ab; Leg score (lambs [6]): 10.8; Adjusted fat (lambs [6]): 0.47 cm; Body wall thickness (lambs [6]): 1.92 cm; Dressing percentage (lambs [6]): 46.8; Quality grade (lambs [6]): 5.23; Rib eye area (lambs [6]): 5.62 sq. cm; Yield grade (lambs [6]): 2.19; Hot carcass weight (lambs [6]): 27.7 kg; Flank streaking (lambs [6]): 2.40^ab; absorbed in the bloodstream [7]: 3–19%
